Values of other authors in patent US20230111210A1, “COCRYSTAL ANTIOXIDANTS OF PROTOCATECHUIC ACID WITH L-THEANINE FOR THE TREATMENT OF OXIDATIVE STRESS AND INFLAMMATORY CONDITIONS” (priority 2020, published 2023).
Converted amounts (≈) assume the structure as drawn.

Tests used:
[1] = not given; remark: listed apart in the source
rabbits = conditions: rabbit, in vivo
rats = conditions: rat, in vivo
[2] = system: AMPA (α-amino-3-hydroxy-5-methyl-4-isoxazolepropionic acid) receptors
[3] = system: NMDA (N-methyl-D-Aspartate) receptors

Row | SMILES | solubility in water [mg/mL] | pKa [1] | oral LD50 (rabbits) | affinity for Kainate receptors (Kainate receptors) | solubility in water (in words) | LD50 (rats) | affinity for AMPA receptors [2] | affinity for NMDA receptors [3]
1 | O=C(O)c1ccc(O)c(O)c1 [Protocatechuic acid, 3,4-dihydroxybenzoic acid] | 18.2 (≈ 118 mM) | 4.26 | greater than 3000 mg/kg |  |  |  |  | 
2 | CCNC(=O)CC[C@H](N)C(=O)O [L-theanine, N-ethyl-L-glutamine] |  | 2.35 |  | micromolar affinities | soluble in water | greater than 5000 mg/kg | micromolar affinities | micromolar affinities
